In article PMC12714101, “CD160-Derived Peptide as a Bidirectional Inhibitor Toward Immune Checkpoints BTLA/HVEM and HVEM/LIGHT” (Journal of Medicinal Chemistry, 2025):
Where a SMILES comes first, the peptide text is derived from it.

Assays:
[1] = tested on: T cell stimulator (TCS) cell line (BW5147); settings: 150 µM
Method: (§1) Before conducting cellular assays, the effects of the peptides on cell viability in Jurkat E6.1 and T cell stimulator (TCS) cell lines, as well as their stability in cell culture supernatant, were evaluated. Jurkat E6.1 cells are human T cell acute lymphoblastic leukemia cells, while TCS is a modified murine thymoma cell line (BW5147). The cellular platforms described below are based on these cells. […] The stability of the peptides in supernatant collected from cells after 24 h of incubation was also assessed.
(§2) Comparison of the binding affinity obtained from SpS and MM-GBSA
(§3) Table S3. Experimental and theoretical binding affinities for the BTLA/HVEM and HVEM/peptide complexes. Experimental Kd values obtained from SpS were used to calculate the corresponding ΔG, while theoretical ΔG values were obtained from MM-GBSA analysis. protein/protein ΔG ΔG obtained from or K [µmol] SD calculated SD MM-GBSA SD
(§4) The cytotoxicity of the peptides against two cell lines, Jurkat E6.1 and TCS, was examined. To estimate the number of viable cells, the CellTiter-Glo® luminescence-based assay

[2] = tested on: Jurkat E6.1 cells; settings: 150 µM
Method: as §1, §2, §3, §4

[3] = target: T1, BTLA/HVEM complex (Homo sapiens, UniProt Q92956); experiment: ELISA inhibition of BTLA/HVEM complex formation; type: biochemical; settings: immobilized HVEM-His, BTLA-Fc 5 μg/mL, PBS-T, 37 °C, mean of three independent experiments; for inhibition at 16.67 µM: peptide 16.67 μM; for inhibition at 50 µM: peptide 50 μM; for inhibition at 150 µM: peptide 150 μM
T1 construct: purchased ACROBiosystems HVM-H52E9 (HVEM-His); BTA-H5255 (BTLA-Fc)
T1 sequence (Q92956 39-202 limits assumed): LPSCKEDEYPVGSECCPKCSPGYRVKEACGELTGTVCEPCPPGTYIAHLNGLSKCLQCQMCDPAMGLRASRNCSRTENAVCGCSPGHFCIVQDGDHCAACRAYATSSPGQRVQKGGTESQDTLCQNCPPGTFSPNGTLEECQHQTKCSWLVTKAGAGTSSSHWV
Method: In the subsequent stage of the study, the potential of the obtained compounds to inhibit the interaction between BTLA and HVEM proteins was evaluated using ELISA, following the methodology described in our previous studies. , HVEM was immobilized on the plate and incubated with peptides at three different concentrations, followed by the addition of Fc-tagged BTLA. Detection was carried out using horseradish peroxidase (HRP) conjugated with anti-human IgG and 3,3′,5,5′-tetramethylbenzidine (TMB) as a substrate. Signal intensity was directly proportional to the amount of BTLA bound to HVEM and inversely proportional to the inhibitory activity of the tested peptides. As a control, BTLA and HVEM were incubated in the absence of peptides.
Recombinant human HVEM protein with a His tag was purchased from ACROBiosystems, Newark, DE, USA (no. HVM-H52E9). Recombinant human protein BTLA-Fc and LIGHT-Fc were also purchased from ACROBiosystems, Newark, DE, USA (no. BTA-H5255 and no. LIT-H5269).
ELISA was performed using transparent 96-well NUNC Maxisorp plates (Thermo Fisher Scientific, Waltham, MA, USA). In the first step, HVEM-His, dissolved in PBS at a concentration of 5 μg/mL (100 μL/well), was immobilized on the plate by overnight incubation at 4 °C. Wells were then blocked with 5% bovine serum albumin (BSA) in PBS containing 0.05% Tween 20 (PBS-T) (200 μL/well). Next, peptides dissolved in PBS-T at concentrations of 150, 50, and 16.67 μM were added to the wells (100 μL/well). Following this, BTLA-Fc in PBS-T at a concentration of 5 μg/mL (100 μL/well) was applied. In the next step, goat anti-human IgG antibody conjugated with the HRP (Bio-Rad Laboratories, Hercules, CA, USA) in PBS-T at a ratio of 1:30,000 (v/v) was added (100 μL/well). Colorimetric detection was performed by adding 100 μL of TMB substrate (Thermo Fisher Scientific, Waltham, MA, USA) to each well and incubating the plate in the dark. At each stage, plates were incubated at 37 °C with continuous shaking for 1 h (except TMB, which was incubated for 15 min). After each incubation, wells were washed five times with PBS-T. Absorbance was measured using an Infinite M200 Pro Reader (Tecan Group Ltd., Männedorf, Switzerland) at wavelengths of 650 nm (measurement wavelength) and 492 nm (reference wavelength). Inhibition assays for the HVEM/LIGHT complex were conducted using the same approach, except that LIGHT was used instead of BTLA. The BTLA/HVEM and HVEM/LIGHT complexes without peptides served as controls. Inhibition percentages were calculated based on the assumption that PBS-T has no effect on the formation of BTLA/HVEM or HVEM/LIGHT complexes. Each ELISA was conducted in at least three independent replicates. The data were analyzed using GraphPad Prism 8 software (San Diego, CA, USA).

[4] = tested on: BTLA/HVEM interaction; experiment: Cellular reporter assay, HVEM reporter cells (JE6.1-NF-κB::eGFP) stimulated with TCS-BTLA; type: cell-based, human; settings: 30 min preincubation, 24 h coculture, NF-κB::eGFP by flow cytometry, mean of four independent experiments in duplicate; for Inhibition - Cellular assay 16.67 µM: peptide 16.67 μM; for Inhibition - Cellular assay 50 µM: peptide 50 μM; for Inhibition - Cellular assay 150 µM: peptide 150 μM
Method: In the next step of the study, the inhibitory properties of the designed peptides were evaluated using previously described cell-based assays. The experiment utilized reporter cells expressing HVEM (JE6.1-NF-κB::eGFP) and T cell stimulator cells expressing BTLA (TCS-BTLA). Activation of the reporter cells by TCS followed a two-signal model. The first is generated through the interaction between the T cell receptor–cluster of differentiation 3 (TCR–CD3) complex on the surface of the reporter cells and a membrane-bound antihuman CD3 single-chain antibody fragment (mAb aCD3) expressed on the TCS cells. The second signal is provided by the binding of HVEM and BTLA, which in this assay results in a strong costimulatory signal via HVEM. Activation of the reporter cells leads to the expression of nuclear factor kappa light chain enhancer of activated B cells (NF-κB), which correlates with the level of enhanced green fluorescent protein (eGFP), measured by flow cytometry. In the absence of peptides, NF-κB expression is normalized to 100%. Disruption of the BTLA/HVEM interaction by peptides results in a concentration-dependent decrease in NF-κB levels. In this study, HVEM-expressing reporter cells were stimulated with BTLA-expressing TCS cells in the presence or absence of tested peptides at three different concentrations.
Cellular studies were performed in the same procedure as we described previously for gD- and BTLA-derived peptides. , The peptides were dissolved in the medium, and their final concentrations in wells were 150, 50, and 16,7 μM. Briefly, reporter cells expressing HVEM (JE6.1-NF-κB::eGFP) (5 × 10^4 cells/well) were preincubated with peptides for 30 min in a 96-well flat-bottom plate. Subsequently, the second cell line expressing BTLA (TCS BTLA) or LIGHT (TCS LIGHT) (2 × 10^4 cells/well) was added and cocultured for 24 h at 37 °C in an atmosphere of 5% CO2. Next, an APC-conjugated mCD45.2 antibody to exclude TCS from the reporter cells was added. The expression of the reporter gene (eGFP) was measured via flow cytometry using a CytoFLEX flow cytometer (Beckman Coulter Inc., Brea, CA, USA), and the results were analyzed using FlowJo v10.10 (FlowJo LLC, Ashland, OR, USA). The data were analyzed using GraphPad Prism 8 software (San Diego, CA, USA).

Row | Structure (SMILES) | Cell viability, TCS [1] [%] | Cell viability, Jurkat E6.1 [2] [%] | inhibition at 16.67 µM [3] [%] | inhibition at 50 µM [3] [%] | Inhibition - Cellular assay 16.67 µM [4] [%] | Inhibition - Cellular assay 50 µM [4] [%] | Inhibition - Cellular assay 150 µM [4] [%] | inhibition at 150 µM [3] [%]
1 | CC[C@@H]1NC(=O)[C@H](CC(C)C)NC(=O)[C@H](Cc2ccccc2)NC(=O)[C@H](C(C)C)NC(=O)[C@@H](NC(=O)[C@H](Cc2ccccc2)NC(C)=O)CSSC[C@@H](C(=O)N[C@@H](CC(C)C)C(N)=O)NC(=O)[C@H](CC(C)C)NC(=O)[C@H](CCC(N)=O)NC(=O)[C@H](CCCCN)NC(=O)[C@H](CC(C)C)NC(=O)[C@H](CO)NC(=O)[C@H]([C@@H](C)O)NC(=O)[C@H](CCC(=O)O)NC(=O)[C@@H]2CCCN2C(=O)[C@H](CO)NC(=O)[C@H](CC)NC(=O)[C@H](CC(=O)O)NC(=O)CNC(=O)[C@H](CO)NC(=O)[C@H](CCCNC(=N)N)NC(=O)[C@H](CC(=O)O)NC(=O)[C@H](CCCCN)NC1=O [B2, CD160(56–79)^(V57C,C61X,C68X,R78C)] (HELM PEPTIDE1{[ac].F.C.V.F.L.[Abu].K.D.R.S.G.D.[Abu].S.P.E.T.S.L.K.Q.L.C.L.[am]}$PEPTIDE1,PEPTIDE1,3:R3-24:R3$$$V2.0) | 9 | 47 | -3.89 | -2.56 | – | – | – | –
2 | CC(=O)N[C@@H](Cc1ccccc1)C(=O)N[C@H](C(=O)N[C@H](C(=O)N[C@@H](Cc1ccccc1)C(=O)N[C@@H](CC(C)C)C(=O)N[C@H]1CSSC[C@@H](C(=O)N[C@@H](CO)C(=O)N2CCC[C@H]2C(=O)N[C@@H](CCC(=O)O)C(=O)N[C@H](C(=O)N[C@@H](CO)C(=O)N[C@@H](CC(C)C)C(=O)N[C@@H](CCCCN)C(=O)N[C@@H](CCC(N)=O)C(=O)N[C@@H](CC(C)C)C(=O)N[C@@H](CCCNC(=N)N)C(=O)N[C@@H](CC(C)C)C(N)=O)[C@@H](C)O)NC(=O)[C@H](CC(=O)O)NC(=O)CNC(=O)[C@H](CO)NC(=O)[C@H](CCCNC(=N)N)NC(=O)[C@H](CC(=O)O)NC(=O)[C@H](CCCCN)NC1=O)C(C)C)C(C)C [B5, CD160(56–79)] (HELM PEPTIDE1{[ac].F.V.V.F.L.C.K.D.R.S.G.D.C.S.P.E.T.S.L.K.Q.L.R.L.[am]}$PEPTIDE1,PEPTIDE1,7:R3-14:R3$$$V2.0) | – | 75 | -7.56 | -7.13 | 12.02 | 12.02 | 2.50 | -4.6
3 | CC[C@@H]1NC(=O)[C@@H](NC(=O)[C@H](Cc2ccccc2)NC(C)=O)CSSC[C@@H](C(=O)N[C@@H](CCCCN)C(N)=O)NC(=O)[C@H](CO)NC(=O)[C@H]([C@@H](C)O)NC(=O)[C@H](CCC(=O)O)NC(=O)[C@@H]2CCCN2C(=O)[C@H](CO)NC(=O)[C@H](CC)NC(=O)[C@H](CC(=O)O)NC(=O)CNC(=O)[C@H](CO)NC(=O)[C@H](CCCNC(=N)N)NC(=O)[C@H](CC(=O)O)NC(=O)[C@H](CCCCN)NC1=O [C2, CD160(59–75)^(L60C,C61X,L74C)] (HELM PEPTIDE1{[ac].F.C.[Abu].K.D.R.S.G.D.[Abu].S.P.E.T.S.C.K.[am]}$PEPTIDE1,PEPTIDE1,3:R3-17:R3$$$V2.0) | – | – | -0.94 | 1 | – | – | – | 0.77
4 | CC(=O)N[C@@H](Cc1ccccc1)C(=O)N[C@@H](CC(C)C)C(=O)N[C@H]1CSSC[C@@H](C(=O)N[C@@H](CO)C(=O)N2CCC[C@H]2C(=O)N[C@@H](CCC(=O)O)C(=O)N[C@H](C(=O)N[C@@H](CO)C(=O)N[C@@H](CC(C)C)C(=O)N[C@@H](CCCCN)C(N)=O)[C@@H](C)O)NC(=O)[C@H](CC(=O)O)NC(=O)CNC(=O)[C@H](CO)NC(=O)[C@H](CCCNC(=N)N)NC(=O)[C@H](CC(=O)O)NC(=O)[C@H](CCCCN)NC1=O [C3, CD160(59–75)] (HELM PEPTIDE1{[ac].F.L.C.K.D.R.S.G.D.C.S.P.E.T.S.L.K.[am]}$PEPTIDE1,PEPTIDE1,4:R3-11:R3$$$V2.0) | – | – | 1.86 | 2.02 | 5.70 | 4.25 | 4.78 | 0.4
